Measured values reported in ChEMBL document CHEMBL2163261, “Anti-HIV-1 activity of resveratrol derivatives and synergistic inhibition of HIV-1 by the combination of resveratrol and decitabine” (Bioorg Med Chem Lett, 2012).
pEC50: −log10 of the molar value. One block for each compound: values may come before it.

Columns and labels:
[1] = system: Human immunodeficiency virus 1; assay: Antiviral activity against HIV1 infected in human U373-MAGI cells expressing CXCR4 assessed as frequency of viral mutagenesis at 70 nM preincubated for 2 hrs prior to infection followed by compound wash out measured after 48 hrs by flow cytometry relative to control; format: functional
[2] = system: Human immunodeficiency virus 1; assay: Antiviral activity against HIV1 infected in human U373-MAGI cells expressing CXCR4 assessed as infected host cells at 70 nM preincubated for 2 hrs prior to infection followed by compound wash out measured after 48 hrs by single round replication assay; format: functional
[3] = system: Human immunodeficiency virus 1; assay: Antiviral activity against HIV1 infected in human U373-MAGI cells expressing CXCR4 assessed as inhibition of viral infection preincubated for 2 hrs prior to infection followed by compound wash out measured after 48 hrs by single round replication assay; format: functional, organism-based; details: for pEC50: Human immunodeficiency virus 1, U373-MAGI
[4] = system: Human immunodeficiency virus 1; assay: Antiviral activity against HIV1 infected in human U373-MAGI cells expressing CXCR4 assessed as infected host cells at 6 uM preincubated for 2 hrs prior to infection followed by compound wash out measured after 48 hrs by single round replication assay; format: functional
[5] = Selectivity index, ratio of TC50 for human U373-MAGI cells to EC50 for human U373-MAGI cells infected with HIV1; format: toxicity, cell-based; details: read-out: Selectivity Index
[6] = Cytotoxicity against human U373-MAGI cells expressing CXCR4; format: cell-based; details: read-out: TC50 (the source's name)
[7] = system: Human immunodeficiency virus 1; assay: Antiviral activity against HIV1 infected in human U373-MAGI cells expressing CXCR4 assessed as frequency of viral mutagenesis at 6 uM preincubated for 2 hrs prior to infection followed by compound wash out measured after 48 hrs by flow cytometry relative to control; format: functional
[8] = system: Human immunodeficiency virus 1; assay: Antiviral activity against HIV1 infected in human U373-MAGI cells expressing CXCR4 assessed as infected host cells at 20 uM preincubated for 2 hrs prior to infection followed by compound wash out post infection measured after 48 hrs by single round replication assay; format: functional
[9] = system: Human immunodeficiency virus 1; assay: Antiviral activity against HIV1 infected in human U373-MAGI cells expressing CXCR4 assessed as frequency of viral mutagenesis at 20 uM preincubated for 2 hrs prior to infection followed by compound wash out measured after 48 hrs by flow cytometry relative to control; format: functional
[10] = system: Human immunodeficiency virus 1; assay: Antiviral activity against HIV1 infected in human U373-MAGI cells expressing CXCR4 assessed as infected host cells at 30 uM preincubated for 2 hrs prior to infection followed by compound wash out measured after 48 hrs by single round replication assay; format: functional
[11] = system: Human immunodeficiency virus 1; assay: Antiviral activity against HIV1 infected in human U373-MAGI cells expressing CXCR4 assessed as frequency of viral mutagenesis at 30 uM preincubated for 2 hrs prior to infection followed by compound wash out measured after 48 hrs by flow cytometry relative to control; format: functional

Structure (SMILES): Nc1ncn([C@H]2C[C@H](O)[C@@H](CO)O2)c(=O)n1 [DECITABINE]
- Ratio [1]: 1.26
- Activity [2]: 93%

- pEC50 [3]: < 4.12
Structure (SMILES): Oc1cc(O)cc(-c2ccc3cnccc3c2)c1

Structure (SMILES): Oc1cc(O)cc(/C=C/c2ccc(O)c(O)c2)c1 [PICEATANNOL]
- Activity [4]: 88%
- selectivity ratio [5]: > 18.7
- Activity [3]: Dose-dependent effect
- pEC50 [3]: 4.67
- CC50 [6]: > 400 µM
- Ratio [7]: 1.16

- pEC50 [3]: < 4.12
Structure (SMILES): Cn1c(-c2ccc(O)cc2)ccc1-c1cc(O)cc(O)c1

Structure (SMILES): Oc1ccc(-c2c(-c3cc(O)cc(O)c3)oc3ccccc23)cc1
- selectivity ratio [5]: 2.4
- Activity [3]: Dose-dependent effect
- pEC50 [3]: 4.46
- CC50 [6]: 84.8 µM

Structure (SMILES): Oc1ccc(-c2oc3ccccc3c2-c2cc(O)cc(O)c2)cc1
- selectivity ratio [5]: 1.5
- Activity [3]: Dose-dependent effect
- pEC50 [3]: 4.19
- CC50 [6]: 108 µM

Structure (SMILES): Oc1ccc(-c2c(-c3cc(O)cc(O)c3)sc3ccccc23)cc1
- selectivity ratio [5]: 3.8
- Activity [3]: Dose-dependent effect
- pEC50 [3]: 4.46
- CC50 [6]: 131 µM

- pEC50 [3]: < 4.12
Structure (SMILES): Oc1ccc(-c2cc(-c3cc(O)cc(O)c3)on2)cc1

Structure (SMILES): Oc1ccc(/C=C/c2cc(O)cc(O)c2)cc1 [RESVERATROL]
- Activity [8]: 91%
- Ratio [9]: 1.08
- Activity [3]: Dose-dependent effect
- pEC50 [3]: < 4.12
- CC50 [6]: > 300 µM

- pEC50 [3]: < 4.12
Structure (SMILES): Oc1cc(O)cc(-c2ccc3cc(O)ccc3c2)c1

Structure (SMILES): Oc1ccc(-c2ccc(-c3cc(O)cc(O)c3)cc2)cc1
- Activity [4]: 96%
- selectivity ratio [5]: 20.3
- Activity [3]: Dose-dependent effect
- pEC50 [3]: 5.06
- CC50 [6]: 179 µM
- Ratio [7]: 1.1

- pEC50 [3]: < 4.12
Structure (SMILES): Oc1ccc(-c2cnc(-c3cc(O)cc(O)c3)nc2)cc1

- pEC50 [3]: < 4.00
Structure (SMILES): Oc1cc(O)cc(-c2ccc(-c3ccncc3)cc2)c1

- pEC50 [3]: < 4.12
Structure (SMILES): Oc1ccc(-n2cc(-c3cc(O)cc(O)c3)nn2)cc1

- pEC50 [3]: < 4.12
Structure (SMILES): Oc1ccc(-c2ncc(-c3cc(O)cc(O)c3)cn2)cc1

- pEC50 [3]: < 4.12
Structure (SMILES): O=C(/C=C/c1ccc(O)cc1)c1cc(O)cc(O)c1

Structure (SMILES): Oc1ccc(-c2sc3ccccc3c2-c2cc(O)cc(O)c2)cc1
- Activity [10]: 99%
- selectivity ratio [5]: 2.6
- Ratio [11]: 1.08
- Activity [3]: Dose-dependent effect
- pEC50 [3]: 4.35
- CC50 [6]: 118 µM
